Columns and labels:
[1] = Paper strip chromatography; assay type: physicochemical; conditions: 37° C.; 0 and 1 hour; 0.2 mg./ml.
[2] = Paper chromatograms of rat urine following IM administration, antibiotically active metabolites; assay type: in vivo; conditions: urine 0-2 and 2-4 hours; for antibiotically active metabolites in urine (spots on paper chromatogram): system No. 9 (butyl acetate:n-butanol:glacial acetic acid:H2O)
Experimental: Paper chromatograms were run on rat urine collected between 0 and 2 and between 2 and 4 hours following IM administration of BL-S1057, 1058 and 643, for the detection of antibiotically active metabolites using descending chromatography with system No. 9 (butyl acetate:n-butanol:glacial acetic acid:H2 O = 80:15:40:24).

[3] = Liquid chromatography, hydrolysis in buffer; assay type: physicochemical; conditions: pH 6 buffer; 1 mg./ml.; 0 hours
Experimental: f. Liquid chromatography = 100% hydrolyzed in pH 6.1 buffer within 1 hour at room temperature (concentration = 1 mg./ml.)
d. Liquid chromatography (1 mg./ml. in pH 6 buffer)

| SMILES | Paper strip chromatography [1] | hydrolysis of the derivatives to the parent compound (BL-S643) [2] | antibiotically active metabolites in urine (spots on paper chromatogram) [2] | % Hydrolyzed (liquid chromatography) [3] [%] |
| --- | --- | --- | --- | --- |
| Cc1nnc(SCC2=C(C(=O)O)N3C(=O)C(N4C(=O)[C@@H](c5ccc(O)cc5)NC4c4ccco4)C3SC2)s1 (some centres unmarked) [BL-S1057] | Primarily 1 zone at Rf of BL-S643 | complete hydrolysis | A single, identical spot was observed |  |
| Cc1nnc(SCC2=C(C(=O)O)N3C(=O)C(NC(=O)[C@H](N)c4ccc(O)cc4)C3SC2)s1 (some centres unmarked) [BL-S643, reference compound] |  |  | A single, identical spot was observed |  |
| Cc1nnc(SCC2=C(C(=O)O)N3C(=O)C(N4C(=O)[C@@H](c5ccc(O)cc5)NC4c4ccc(S(=O)(=O)O)o4)C3SC2)s1 (some centres unmarked) [BL-S1058] | Primarily 1 zone at Rf of BL-S643 at 0 and 1 hour at 37 °C (concentration is 0.2 mg./ml.) There is evidence of a second zone | complete hydrolysis | A single, identical spot was observed | 25.4 |

— US4091213A, “7-Cyclizedamino-3-heterothiomethyl cephalosporin derivatives” (Bristol-Myers Company, priority 1977, dated 1978)
